Test [1] addresses T1, RORγ-LBD (Homo sapiens, UniProt P51449).
T1 construct: made in house; host or cells: SF9 cells (baculovirus); used as diluted lysate
T1 sequence (P51449 269-508 limits assumed): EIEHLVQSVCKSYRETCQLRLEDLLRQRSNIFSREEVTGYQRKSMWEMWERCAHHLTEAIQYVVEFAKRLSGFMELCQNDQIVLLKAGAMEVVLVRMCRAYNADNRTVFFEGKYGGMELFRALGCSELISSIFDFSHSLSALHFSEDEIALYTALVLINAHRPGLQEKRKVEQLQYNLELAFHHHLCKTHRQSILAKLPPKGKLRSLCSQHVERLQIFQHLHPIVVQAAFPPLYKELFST
As to the kind of experiment: RORγ-Ligand Binding Domain (LBD) TR-FRET Assay.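 On TR-FRET Assay Max Response: 665/615 nm signal ratio set to 100 without ursolic acid or test compound.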 It is filed as biochemical. As to conditions: RORγ-LBD TR-FRET assay; for TR-FRET Assay Max Response: maximum response. An outline of the steps: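 This TR-FRET coactivator assay pairs baculovirus-expressed His-RORγ-LBD (~3 nM final) with biotin-SRC1 LXXLL peptide at 200 nM final in pH 7.0 Tris/KCl/EDTA/DTT/BSA buffer.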

In test [2] the target is T2, Gal4-RORγ-LBD (Homo sapiens, UniProt P51449).
T2 construct: expressed in transfected cells
T2 sequence (P51449 269-508 limits assumed): T1 sequence (P51449 269-508 limits assumed)
Put plainly: Gal4-RORγ Luciferase Reporter Assay in HEK-293T Cells. It is filed as cell-based. The following applies: HEK-293 cells, luciferase reporter, in presence of ursolic acid; for Gal4-RORγ Assay Max Response: maximum response. An outline of the steps: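 HEK-293 cells were co-transfected with Gal4-RORγ-LBD and a Gal4-luciferase reporter, then exposed overnight at 37 °C to compounds with […] ursolic acid present (0.2% DMSO). Luminescence was read with One-Glo after 10 min at RT, untreated signal was set as 100, and Max Response was taken as the upper plateau of a 4-parameter logistic fit.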
On the technique in general: A reporter such as luciferase makes a cellular process visible.

The source of these data is patent publication US9896441B2 (Lycera Corporation, priority 2014, dated 2018).

One may read the EC50 as the concentration giving half of the maximal effect. Take `C/C(=C\c1ccc2c(c1)N(S(=O)(=O)c1cccc(C(F)(F)F)c1)C[C@H](CCC(=O)N1CC3(COC3)C1)O2)c1c(F)cccc1Cl` [Example 127D, (S,E)-3-(6-(2-(2-chloro-6-fluorophenyl)prop-1-en-1-yl)-4-((3-(trifluoro-methyl)phenyl)sulfonyl)-3,4-dihydro-2H-benzo[b][1,4]oxazin-2-yl)-1-(2-oxa-6-azaspiro[3.3]heptan-6-yl)propan-1-one]: in test [1], the half-maximal effective concentration (EC50) is below 500 nM and the “TR-FRET Assay Max Response” value is recorded as “**** (a value greater than 200)”. Also, in test [2], the EC50 was below 500 nM and the “Gal4-RORγ Assay Max Response” value was “** (a value in the range of greater than 90 to 150)”.
As to `C/C(=C\c1ccc2c(c1)N(S(=O)(=O)c1cccc(C(F)(F)F)c1)C[C@H](CCC(=O)N1C[C@@H](C)O[C@@H](C)C1)O2)c1c(F)cccc1Cl` [Example 127E, 3-((S)-6-((E)-2-(2-chloro-6-fluorophenyl)prop-1-en-1-yl)-4-((3-(trifluoromethyl)phenyl)sulfonyl)-3,4-dihydro-2H-benzo[b][1,4]oxazin-2-yl)-1-((2S,6R)-2,6-dimethylmorpholino)propan-1-one], in test [1], the EC50 is below 500 nM and the “TR-FRET Assay Max Response” value is recorded as “*** (a value in the range of greater than 150 to 200)”. Moreover, in test [2], the EC50 was below 500 nM and the “Gal4-RORγ Assay Max Response” value is listed as “* (a value in the range of 30 to 90)”.
Consider `C/C(=C\c1ccc2c(c1)N(S(=O)(=O)c1cccc(C(F)(F)F)c1)C[C@H](CCC(=O)N1CCNCC1)O2)c1c(F)cccc1Cl` [Example 127F, (S,E)-3-(6-(2-(2-chloro-6-fluorophenyl)prop-1-en-1-yl)-4-((3-(trifluoromethyl)phenyl)sulfonyl)-3,4-dihydro-2H-benzo[b][1,4]oxazin-2-yl)-1-(piperazin-1-yl)propan-1-one], for which, in test [1], the EC50 was below 500 nM and the “TR-FRET Assay Max Response” value is recorded as “**** (a value greater than 200)”. Also, in test [2], the EC50 was 500 to 5000 nM and the “Gal4-RORγ Assay Max Response” value is “** (a value in the range of greater than 90 to 150)”.
For `O=C(CC[C@H]1CN(S(=O)(=O)c2cccc(C(F)(F)F)c2)c2cc(/C=C/c3c(Cl)cccc3C(F)(F)F)ccc2O1)N1CC2(COC2)C1` [Example 127G, (S,E)-3-(6-(2-chloro-6-(trifluoromethyl)styryl)-4-((3-(trifluoromethyl)-phenyl)sulfonyl)-3,4-dihydro-2H-benzo[b][1,4]oxazin-2-yl)-1-(2-oxa-6-azaspiro[3.3]heptan-6-yl)propan-1-one] the same measures were below 500 nM, “**** (a value greater than 200)”, 500 to 5000 nM and “* (a value in the range of 30 to 90)”.
With `C/C(=C\c1ccc2c(c1)N(S(=O)(=O)c1cccc(C(F)(F)F)c1)C[C@H](CCC(=O)N1CCC1)O2)c1c(F)cccc1Cl` [Example 127H, (S,E)-1-(azetidin-1-yl)-3-(6-(2-(2-chloro-6-fluorophenyl)prop-1-en-1-yl)-4-((3-(trifluoromethyl)phenyl)sulfonyl)-3,4-dihydro-2H-benzo[b][1,4]oxazin-2-yl)propan-1-one], in test [1], the 50% effective concentration (EC50) was below 500 nM and the “TR-FRET Assay Max Response” value was “*** (a value in the range of greater than 150 to 200)”. In test [2], the 50% effective concentration (EC50) is below 500 nM and the “Gal4-RORγ Assay Max Response” value is given as “** (a value in the range of greater than 90 to 150)”.
With `O=C(CC[C@H]1CN(S(=O)(=O)c2cccc(C(F)(F)F)c2)c2cc(/C=C/c3c(F)cccc3Cl)ccc2O1)N1CC2(COC2)C1` [Example 127I, (S,E)-3-(6-(2-chloro-6-fluorostyryl)-4-((3-(trifluoromethyl)phenyl)sulfonyl)-3,4-dihydro-2H-benzo[b][1,4]oxazin-2-yl)-1-(2-oxa-6-azaspiro[3.3]heptan-6-yl)propan-1-one], in test [1], the 50% effective concentration (EC50) is below 500 nM and the “TR-FRET Assay Max Response” value was “*** (a value in the range of greater than 150 to 200)”. In test [2], the EC50 was in the range of 500 to 5000 nM and the “Gal4-RORγ Assay Max Response” value is “** (a value in the range of greater than 90 to 150)”.
Turning to `CC(=O)N1CCN(C(=O)CC[C@H]2CN(S(=O)(=O)c3cccc(C(F)(F)F)c3)c3cc(/C=C(\C)c4c(F)cccc4Cl)ccc3O2)CC1` [Example 127J, (S,E)-1-(4-acetyl-piperazin-1-yl)-3-(6-(2-(2-chloro-6-fluorophenyl)prop-1-en-1-yl)-4-((3-(trifluoro-methyl)-phenyl)sulfonyl)-3,4-dihydro-2H-benzo[b]-[1,4]oxazin-2-yl)propan-1-one], in test [1], the EC50 was below 500 nM and the “TR-FRET Assay Max Response” value is reported as “*** (a value in the range of greater than 150 to 200)”. Besides, in test [2], the 50% effective concentration (EC50) was below 500 nM and the “Gal4-RORγ Assay Max Response” value is “** (a value in the range of greater than 90 to 150)”.
Turning to `C/C(=C\c1ccc2c(c1)N(S(=O)(=O)c1cccc(C(F)(F)F)c1)C[C@H](CCC(=O)N1CCC(C(=O)[O-])CC1)O2)c1c(F)cccc1Cl.[Na+]` [Example 128, Sodium Salt of (S,E)-1-(3-(6-(2-(2-Chloro-6-fluorophenyl)prop-1-en-1-yl)-4-((3-(trifluoromethyl)phenyl)sulfonyl)-3,4-dihydro-2H-benzo[b][1,4]oxazin-2-yl)propanoyl)piperidine-4-carboxylic acid], in test [1], the EC50 is below 500 nM and the “TR-FRET Assay Max Response” value is recorded as “**** (a value greater than 200)”. In test [2], the concentration giving a half-maximal response (EC50) was below 500 nM and the “Gal4-RORγ Assay Max Response” value is reported as “** (a value in the range of greater than 90 to 150)”.
Take `O=C(O)C1CCN(C(=O)CC[C@H]2CN(S(=O)(=O)c3cccc(C(F)(F)F)c3)c3cc(/C=C/c4c(Cl)cccc4C(F)(F)F)ccc3O2)CC1` [Example 129A, (S,E)-1-(3-(6-(2-chloro-6-(trifluoromethyl)styryl)-4-((3-(trifluoromethyl)-phenyl)sulfonyl)-3,4-dihydro-2H-benzo[b]-[1,4]oxazin-2-yl)propanoyl)piperidine-4-carboxylic acid]: in test [1], the EC50 was below 500 nM and the “TR-FRET Assay Max Response” value is “**** (a value greater than 200)”. In test [2], the 50% effective concentration (EC50) is below 500 nM and the “Gal4-RORγ Assay Max Response” value is on record as “** (a value in the range of greater than 90 to 150)”.
Regarding `C/C(=C\c1ccc2c(c1)N(S(=O)(=O)c1cccc(C(F)(F)F)c1)C[C@H](CCC(=O)N1CC[C@@H](C(=O)O)C1)O2)c1c(F)cccc1Cl` [Example 129B, (R)-1-(3-((S)-6-((E)-2-(2-chloro-6-fluorophenyl)-prop-1-en-1-yl)-4-((3-(trifluoromethyl)phenyl)sulfonyl)-3,4-dihydro-2H-benzo[b][1,4]oxazin-2-yl)propanoyl)pyrrolidine-3-carboxylic acid], in test [1], the EC50 is below 500 nM and the “TR-FRET Assay Max Response” value was “**** (a value greater than 200)”. In addition, in test [2], the EC50 was below 500 nM and the “Gal4-RORγ Assay Max Response” value is “** (a value in the range of greater than 90 to 150)”.
Take `C/C(=C\c1ccc2c(c1)N(S(=O)(=O)c1cccc(C(F)(F)F)c1)C[C@H](CCC(=O)N1CC[C@H](C(=O)O)C1)O2)c1c(F)cccc1Cl` [Example 129C, (S)-1-(3-((S)-6-((E)-2-(2-chloro-6-fluorophenyl)-prop-1-en-1-yl)-4-((3-(trifluoromethyl)phenyl)sulfonyl)-3,4-dihydro-2H-benzo[b][1,4]oxazin-2-1)propanoyl)pyrrolidine-3-carboxylic acid]: in test [1], the 50% effective concentration (EC50) is below 500 nM and the “TR-FRET Assay Max Response” value is reported as “**** (a value greater than 200)”. For the same molecule, in test [2], the EC50 is below 500 nM and the “Gal4-RORγ Assay Max Response” value was “** (a value in the range of greater than 90 to 150)”.
Take `C/C(=C\c1ccc2c(c1)N(S(=O)(=O)c1cccc(C(F)(F)F)c1)C[C@H](CCC(=O)N1CC(C(=O)O)C1)O2)c1c(F)cccc1Cl` [Example 129D, (S,E)-1-(3-(6-(2-(2-chloro-6-fluorophenyl)-prop-1-en-1-yl)-4-((3-(trifluoromethyl)phenyl)sulfonyl)-3,4-dihydro-2H-benzo[b][1,4]oxazin-2-yl)propanoyl)azetidine-3-carboxylic acid]: in test [1], the EC50 was below 500 nM and the “TR-FRET Assay Max Response” value is reported as “**** (a value greater than 200)”. Also, in test [2], the EC50 was below 500 nM and the “Gal4-RORγ Assay Max Response” value was “** (a value in the range of greater than 90 to 150)”.
For the molecule `C/C(=C\c1ccc2c(c1)N(S(=O)(=O)c1cccc(C(F)(F)F)c1)C[C@H](CCC(=O)NCC(=O)O)O2)c1c(F)cccc1Cl` [Example 129E, (S,E)-(3-(6-(2-(2-chloro-6-fluorophenyl)prop-1-en-1-yl)-4-((3-(trifluoro-methyl)phenyl)sulfonyl)-3,4-dihydro-2H-benzo[b][1,4]oxazin-2-yl)propanoyl)glycine], in test [1], the EC50 is below 500 nM and the “TR-FRET Assay Max Response” value is “**** (a value greater than 200)”. Besides, in test [2], the EC50 is 500 to 5000 nM and the “Gal4-RORγ Assay Max Response” value was “** (a value in the range of greater than 90 to 150)”.
